Read-outs that look alike come from different tables or passages of the source.
Assays:
[1] = molecular target: T1, Rhizoctonia solani laccase isozyme 4 (rsl4; RsL), wild type (pJiWa59), SEQ ID NO:25 (Thanatephorus cucumeris, UniProt Q02081); assay: Syringaldazine and ABTS oxidase kinetics (Km, kcat), RsL wt; type: biochemical; conditions: 8 mM MES-NaOH buffer, pH 5.3, spectroscopic
T1 sequence (Q02081 21-531): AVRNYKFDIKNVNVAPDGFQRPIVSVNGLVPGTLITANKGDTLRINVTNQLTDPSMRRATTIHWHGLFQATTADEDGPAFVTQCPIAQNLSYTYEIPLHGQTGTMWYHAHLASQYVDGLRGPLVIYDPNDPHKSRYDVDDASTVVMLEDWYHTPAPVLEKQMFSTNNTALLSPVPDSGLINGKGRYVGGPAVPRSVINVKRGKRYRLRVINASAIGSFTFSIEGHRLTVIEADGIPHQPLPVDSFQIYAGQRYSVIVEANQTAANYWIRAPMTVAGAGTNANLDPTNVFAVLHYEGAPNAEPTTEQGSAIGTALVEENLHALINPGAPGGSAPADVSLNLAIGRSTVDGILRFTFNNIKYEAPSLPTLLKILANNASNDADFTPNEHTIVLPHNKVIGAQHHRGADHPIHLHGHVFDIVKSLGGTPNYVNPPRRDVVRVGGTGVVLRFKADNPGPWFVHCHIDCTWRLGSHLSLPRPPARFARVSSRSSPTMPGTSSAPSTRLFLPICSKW
Procedure: (§1) The molecular weights of the mature laccases are used to calculate both extinction coefficients and turnover numbers. The molecular weights are determined from the deduced amino acid sequences of the DNA sequences (FIG. 6: SEQ ID NOS:24 and 25, and FIG. 7: SEQ ID NOS:26 and 27). Protein concentrations (expressed as subunits) are measured based on the extinction coefficients determined by quantitative amino acid analysis.
(§2) Km and kcat are obtained from the initial rate (v), enzyme concentration (E), and substrate concentration (S) in accordance to the equation v=kcat ES/(Km +S) by non-linear regression fitting using the Prizm program (GraphPad, San Diego, Calif.). […] The O2 concentration in air-saturated buffer solution is assumed as the same in plain water (0.28 mM).

[2] = molecular target: Myceliophthora thermophila laccase (MtL) mutant "M" L513F (pRaMB17M) (Thermothelomyces thermophilus, UniProt G2QG31, form not given/L556F); type: biochemical
Procedure: as §1, §2

[3] = molecular target: Rhizoctonia solani laccase isozyme 4 (RsL) mutant "M" L470F (pJiWa86) (Thanatephorus cucumeris, UniProt Q02081); type: biochemical
Procedure: as §1, §2

[4] = molecular target: Rhizoctonia solani laccase isozyme 4 (RsL) mutant "T" L466V/E467S/A468G (pJiWa85) (Thanatephorus cucumeris, UniProt Q02081); type: biochemical
Procedure: as §1, §2

[5] = molecular target: Myceliophthora thermophila laccase (MtL) mutant "T" V509L/S510E/G511A (pBANe22T) (Thermothelomyces thermophilus, UniProt G2QG31, G554A/S553E/V552L); type: biochemical
Procedure: as §1, §2

[6] = molecular target: T2, Myceliophthora thermophila laccase (lcc-1; MtL), wild type (pRaMB17), SEQ ID NO:27 (Thermothelomyces thermophilus, UniProt G2QG31); assay: Syringaldazine and ABTS oxidase kinetics (Km, kcat), MtL wt; conditions: 8 mM MES-NaOH buffer, pH 5.3, spectroscopic
T2 sequence (G2QG31 with tags, fused parts or gaps INS108NSII/R109G/T291C/S323N/P398A/P430A/T522S/A533S/H588R): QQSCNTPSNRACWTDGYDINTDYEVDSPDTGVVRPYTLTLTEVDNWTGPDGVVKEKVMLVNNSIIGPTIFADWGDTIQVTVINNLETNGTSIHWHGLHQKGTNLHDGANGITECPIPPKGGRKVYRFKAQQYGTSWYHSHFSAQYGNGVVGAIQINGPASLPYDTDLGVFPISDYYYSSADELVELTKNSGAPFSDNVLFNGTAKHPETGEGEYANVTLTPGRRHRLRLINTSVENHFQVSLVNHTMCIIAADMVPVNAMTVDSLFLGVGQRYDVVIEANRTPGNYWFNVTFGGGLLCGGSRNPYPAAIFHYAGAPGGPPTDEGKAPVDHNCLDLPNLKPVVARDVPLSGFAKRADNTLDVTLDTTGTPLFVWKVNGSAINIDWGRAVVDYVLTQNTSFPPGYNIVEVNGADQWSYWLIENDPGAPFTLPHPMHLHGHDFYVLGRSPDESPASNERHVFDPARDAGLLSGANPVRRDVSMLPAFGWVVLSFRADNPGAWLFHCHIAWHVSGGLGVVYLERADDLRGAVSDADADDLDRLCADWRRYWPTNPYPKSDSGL
Procedure: as §1, §2

[7] = substrate: CCn1c(=NN=c2sc3cc(S(=O)(=O)O)ccc3n2CC)sc2cc(S(=O)(=O)O)ccc21; assay: purified protein, by the assay type; conditions: 8 mM MES-NaOH buffer, pH 5.3, spectroscopic
[8] = substrate: COc1cc(C=NN=Cc2cc(OC)c(O)c(OC)c2)cc(OC)c1O; assay: purified protein, by the assay type; conditions: 8 mM MES-NaOH buffer, pH 5.3, spectroscopic
[9] = 8 mM MES-NaOH buffer, pH 5.3, spectroscopic
[10] = read-out: Km (SGZ), 8 mM MES-NaOH buffer, pH 5.3, spectroscopic
[11] = read-out: Km (ABTS), 8 mM MES-NaOH buffer, pH 5.3, spectroscopic

COc1cc(C=NN=Cc2cc(OC)c(O)c(OC)c2)cc(OC)c1O [SGZ, syringaldazine]
kcat (SGZ) [1]: 9.17 ± 0.667 s⁻¹
kcat (SGZ) [2, 9]: 55 ± 1.67 s⁻¹
Km [2, 10]: 1.8 ± 0.2 µM
kcat (SGZ) [3, 9]: 4.25 ± 0.183 s⁻¹
Km [3, 10]: 35 ± 4 µM
kcat (SGZ) [4, 9]: 0.0183 ± 0.0017 s⁻¹
Km [4, 10]: 3.9 ± 0.3 µM
kcat (SGZ) [5, 9]: 6 ± 0.333 s⁻¹
Km [5, 10]: 0.9 ± 0.2 µM

CCn1c(=NN=c2sc3cc(S(=O)(=O)O)ccc3n2CC)sc2cc(S(=O)(=O)O)ccc21 [ABTS, 2,2'-azinobis(3-ethylbenzthiazoline-6-sulfonic acid)]
kcat (ABTS) [6]: 63.33 ± 5 s⁻¹
kcat (ABTS) [1]: 41.67 ± 1.67 s⁻¹
kcat (ABTS) [2, 9]: 30 ± 1.67 s⁻¹
Km [2, 11]: 43 ± 3 µM
kcat (ABTS) [3, 9]: 12.7 ± 0.5 s⁻¹
Km [3, 11]: 125 ± 13 µM
kcat (ABTS) [4, 9]: 0.333 ± 0.017 s⁻¹
Km [4, 11]: 60 ± 4 µM
kcat (ABTS) [5, 9]: 8.83 ± 0.333 s⁻¹

B1: Rhizoctonia solani laccase isozyme 4 (rsl4; RsL), wild type (pJiWa59), SEQ ID NO:25 (Thanatephorus cucumeris) (protein)
chain: AVRNYKFDIKNVNVAPDGFQRPIVSVNGLVPGTLITANKGDTLRINVTNQLTDPSMRRATTIHWHGLFQATTADEDGPAFVTQCPIAQNLSYTYEIPLHGQTGTMWYHAHLASQYVDGLRGPLVIYDPNDPHKSRYDVDDASTVVMLEDWYHTPAPVLEKQMFSTNNTALLSPVPDSGLINGKGRYVGGPAVPRSVINVKRGKRYRLRVINASAIGSFTFSIEGHRLTVIEADGIPHQPLPVDSFQIYAGQRYSVIVEANQTAANYWIRAPMTVAGAGTNANLDPTNVFAVLHYEGAPNAEPTTEQGSAIGTALVEENLHALINPGAPGGSAPADVSLNLAIGRSTVDGILRFTFNNIKYEAPSLPTLLKILANNASNDADFTPNEHTIVLPHNKVIGAQHHRGADHPIHLHGHVFDIVKSLGGTPNYVNPPRRDVVRVGGTGVVLRFKADNPGPWFVHCHIDCTWRLGSHLSLPRPPARFARVSSRSSPTMPGTSSAPSTRLFLPICSKW
Km ([7]; other: RsL wt): 52 ± 6 µM
Km ([8]; other: RsL wt): 28 ± 4 µM

B2: Myceliophthora thermophila laccase (lcc-1; MtL), wild type (pRaMB17), SEQ ID NO:27 (Thermothelomyces thermophilus ATCC 42464) (protein)
chain: QQSCNTPSNRACWTDGYDINTDYEVDSPDTGVVRPYTLTLTEVDNWTGPDGVVKEKVMLVNNSIIGPTIFADWGDTIQVTVINNLETNGTSIHWHGLHQKGTNLHDGANGITECPIPPKGGRKVYRFKAQQYGTSWYHSHFSAQYGNGVVGAIQINGPASLPYDTDLGVFPISDYYYSSADELVELTKNSGAPFSDNVLFNGTAKHPETGEGEYANVTLTPGRRHRLRLINTSVENHFQVSLVNHTMCIIAADMVPVNAMTVDSLFLGVGQRYDVVIEANRTPGNYWFNVTFGGGLLCGGSRNPYPAAIFHYAGAPGGPPTDEGKAPVDHNCLDLPNLKPVVARDVPLSGFAKRADNTLDVTLDTTGTPLFVWKVNGSAINIDWGRAVVDYVLTQNTSFPPGYNIVEVNGADQWSYWLIENDPGAPFTLPHPMHLHGHDFYVLGRSPDESPASNERHVFDPARDAGLLSGANPVRRDVSMLPAFGWVVLSFRADNPGAWLFHCHIAWHVSGGLGVVYLERADDLRGAVSDADADDLDRLCADWRRYWPTNPYPKSDSGL
Km ([7]; other: MtL wt): 110 ± 20 µM
Km ([8]; other: MtL wt): 1.4 ± 0.2 µM

— patent publication US5972670A, “Blue copper oxidase mutants with enhanced activity” (priority 1998, dated 1999)
